Values joined by “and” are separate entries in the source; they are usually repeats but may differ in a detail not shown here. Equal entries are not always repeated. Inconclusive results and toxic doses are left out. The calls were made as follows: active = survival T/C of 150% or more; inactive = T/C below 125% in these data.
Tested on: P388 leukemia ip, CD2F1 mice, survival T/C
Test: NCI In Vivo Anticancer Drug Screen. Data for tumor model P388 Leukemia (intraperitoneal) in CD2F1 (CDF1) mice
Conditions: endpoint: median survival time, higher = longer survival
In short: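 Mice carrying the transplanted tumor received test compound or vehicle. Survival was recorded in each group, and the value is the treated-group measurement divided by that of the vehicle-treated control group.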

[1] = dose: 100.0 mg/kg/injection, schedule: Q01DX001 (ip), vehicle: Klucel (hydroxypropylcellulose) (HPC)
[2] = dose: 200.0 mg/kg/injection, schedule: Q01DX001 (ip), vehicle: Klucel (hydroxypropylcellulose) (HPC)
[3] = dose: 400.0 mg/kg/injection, schedule: Q01DX001 (ip), vehicle: Klucel (hydroxypropylcellulose) (HPC)
[4] = dose: 50.0 mg/kg/injection, schedule: Q01DX005 (ip), vehicle: Klucel (hydroxypropylcellulose) (HPC)
[5] = dose: 100.0 mg/kg/injection, schedule: Q01DX005 (ip), vehicle: Klucel (hydroxypropylcellulose) (HPC)
[6] = dose: 200.0 mg/kg/injection, schedule: Q01DX005 (ip), vehicle: Klucel (hydroxypropylcellulose) (HPC)
[7] = dose: 100.0 mg/kg/injection, schedule: Q04DX003 (ip), vehicle: saline
[8] = dose: 200.0 mg/kg/injection, schedule: Q04DX003 (ip), vehicle: saline
[9] = dose: 400.0 mg/kg/injection, schedule: Q04DX003 (ip), vehicle: saline
[10] = dose: 50.0 mg/kg/injection, schedule: Q01DX005 (ip), vehicle: saline with Tween-80
[11] = dose: 100.0 mg/kg/injection, schedule: Q01DX005 (ip), vehicle: saline with Tween-80
[12] = dose: 200.0 mg/kg/injection, schedule: Q01DX005 (ip), vehicle: saline with Tween-80
[13] = dose: 6.25 mg/kg/injection, schedule: Q01DX009 (ip), vehicle: Klucel (hydroxypropylcellulose) (HPC)
[14] = dose: 12.5 mg/kg/injection, schedule: Q01DX009 (ip), vehicle: Klucel (hydroxypropylcellulose) (HPC)
[15] = dose: 25.0 mg/kg/injection, schedule: Q01DX009 (ip), vehicle: Klucel (hydroxypropylcellulose) (HPC)
[16] = dose: 50.0 mg/kg/injection, schedule: Q01DX009 (ip), vehicle: Klucel (hydroxypropylcellulose) (HPC)
[17] = dose: 100.0 mg/kg/injection, schedule: Q01DX009 (ip), vehicle: Klucel (hydroxypropylcellulose) (HPC)
[18] = dose: 200.0 mg/kg/injection, schedule: Q01DX009 (ip), vehicle: Klucel (hydroxypropylcellulose) (HPC)
[19] = dose: 100.0 mg/kg/injection, schedule: Q01DX001 (ip), vehicle: saline with Tween-80
[20] = dose: 200.0 mg/kg/injection, schedule: Q01DX001 (ip), vehicle: saline with Tween-80
[21] = dose: 400.0 mg/kg/injection, schedule: Q01DX001 (ip), vehicle: saline with Tween-80
[22] = dose: 100.0 mg/kg/injection, schedule: Q04DX002 (ip), vehicle: saline with Tween-80
[23] = dose: 200.0 mg/kg/injection, schedule: Q04DX002 (ip), vehicle: saline with Tween-80
[24] = dose: 400.0 mg/kg/injection, schedule: Q04DX002 (ip), vehicle: saline with Tween-80
[25] = dose: 25.0 mg/kg/injection, schedule: Q01DX009 (ip), vehicle: saline with Tween-80
[26] = dose: 50.0 mg/kg/injection, schedule: Q01DX009 (ip), vehicle: saline with Tween-80
[27] = dose: 100.0 mg/kg/injection, schedule: Q01DX009 (ip), vehicle: saline with Tween-80
[28] = dose: 50.0 mg/kg/injection, schedule: Q01DX005 (ip), vehicle: saline
[29] = dose: 200.0 mg/kg/injection, schedule: Q01DX005 (ip), vehicle: saline

Measured: T/C

CSC(=S)n1nc(-c2ccccc2)c(N=Nc2ccccc2[N+](=O)[O-])c1C
inactive: [1] 98 % of control | [2] 102 % of control | [3] 103 % of control

CCC(=O)/C=C/c1cc(OC)c(OC)c(OC)c1
inactive: [1] 107 % of control | [2] 107 % of control | [3] 100 % of control

Cc1c(C(=O)c2ccc3c(c2)OCO3)ccc2c1OCO2
inactive: [4] 105 % of control | [5] 105 % of control | [6] 98 % of control

Cc1nc(C)c(C(=O)O)cc1C(=O)O
inactive: [7] 100 % of control | [8] 95 % of control | [9] 86 % of control

COc1cc(N=Nc2cc(CN(C)C)c(O)c3ncccc23)c(OC)cc1N=Nc1c(Cl)cc([N+](=O)[O-])cc1Cl
inactive: [10] 104 % of control | [11] 100 % of control | [12] 109 % of control

CSC1=NNC(C)(C)C(N)=N1
inactive: dose: 100.0 mg/kg/injection, schedule: Q01DX001 (ip), vehicle: saline 98 % of control | dose: 200.0 mg/kg/injection, schedule: Q01DX001 (ip), vehicle: saline 97 % of control | dose: 400.0 mg/kg/injection, schedule: Q01DX001 (ip), vehicle: saline 100 % of control

CC(C)CC(NCc1ccccc1)C(=O)O (configuration not stated)
inactive: [10] 95 % of control | [11] 100 % of control | [12] 95 % of control

COc1ccc(C(=O)N2C=CC(=Cc3ccccc3)C=C2)cc1
inactive: [13] 103 % of control | [14] 102 % of control | [15] 97 % of control

C[N+]1(C)CC[N+](C)(C)CC1
inactive: [15] 103 % of control | [16] 103 % of control | [17] 100 % of control | [18] 110 % of control

COc1ccc2sc(-c3ccccc3)cc(=O)c2c1CCl
inactive: [19] 94 % of control | [20] 97 % of control | [21] 100 % of control

O=S(=O)(O)O.[NH-]CC(N)=O.[NH-]CC(N)=O.[Ni+2]
inactive: dose: 1.0 mg/kg/injection, schedule: Q01DX009 (ip), vehicle: saline 95 % of control | dose: 2.0 mg/kg/injection, schedule: Q01DX009 (ip), vehicle: saline 90 % of control | dose: 4.0 mg/kg/injection, schedule: Q01DX009 (ip), vehicle: saline 95 % of control | dose: 8.0 mg/kg/injection, schedule: Q01DX009 (ip), vehicle: saline 90 % of control

O=C(/C=C\c1ccc(C2OCCO2)cc1)c1ccccc1
inactive: [22] 111 % of control | [23] 103 % of control | [24] 92 % of control

O=Cc1cccc(OC(=O)Oc2cccc(C=O)c2)c1
inactive: [19] 101 % of control | [20] 99 % of control | [21] 104 % of control

COc1ccc(/C(=C(\c2ccccc2)[N+](=O)[O-])c2ccc(OCCN3CCCC3)cc2)cc1
inactive: [25] 104 % of control | [26] 100 % of control

N=C(N)SCc1cccc2c(=O)cc(-c3ccccc3)oc12
inactive: dose: 25.0 mg/kg/injection, schedule: Q01DX009 (ip), vehicle: saline 118 % of control | dose: 50.0 mg/kg/injection, schedule: Q01DX009 (ip), vehicle: saline 86 % of control and 93 % of control | dose: 200.0 mg/kg/injection, schedule: Q01DX009 (ip), vehicle: saline 113 % of control and 122 % of control

Oc1ccc2c(c1O)/C(=C/C=NCC1(O)OCC(O)C(O)C1O)C=N2 (configuration not stated)
inactive: dose: 60.0 mg/kg/injection, schedule: Q01DX005 (ip), vehicle: saline 101 % of control | dose: 120.0 mg/kg/injection, schedule: Q01DX005 (ip), vehicle: saline 98 % of control | dose: 240.0 mg/kg/injection, schedule: Q01DX005 (ip), vehicle: saline 101 % of control

CS(=O)(=O)CC(=O)c1ccccc1
inactive: [25] 101 % of control and 106 % of control | [26] 97 % of control | [27] 111 % of control and 106 % of control | dose: 200.0 mg/kg/injection, schedule: Q01DX009 (ip), vehicle: saline with Tween-80 103 % of control and 111 % of control

[N-]=[N+]=NC(=O)c1cnn(-c2ccccc2)c1N
inactive: dose: 15.0 mg/kg/injection, schedule: Q01DX005 (ip), vehicle: saline with Tween-80 101 % of control | dose: 30.0 mg/kg/injection, schedule: Q01DX005 (ip), vehicle: saline with Tween-80 97 % of control | dose: 60.0 mg/kg/injection, schedule: Q01DX005 (ip), vehicle: saline with Tween-80 106 % of control and 95 % of control

COC(=O)c1c(-c2ccc(OC)c(OC)c2)c(C=O)n(C)c1C
inactive: [22] 99 % of control | [23] 91 % of control | [24] 90 % of control

O=C(O)c1ccc2nc(-c3ccccc3)cn2c1
inactive: dose: 12.5 mg/kg/injection, schedule: Q04DX003 (ip), vehicle: saline with Tween-80 98 % of control | dose: 25.0 mg/kg/injection, schedule: Q04DX003 (ip), vehicle: saline with Tween-80 98 % of control | dose: 50.0 mg/kg/injection, schedule: Q04DX003 (ip), vehicle: saline with Tween-80 101 % of control and 105 % of control | dose: 100.0 mg/kg/injection, schedule: Q04DX003 (ip), vehicle: saline with Tween-80 106 % of control

N#CC(C=C(c1ccccc1)c1ccccc1)c1ccccc1 (configuration not stated)
inactive: [7] 98 % of control | [8] 98 % of control | [9] 96 % of control

Nc1nc2c([nH]c(=O)n2C2OC(CO)C(O)C2O)c(=O)[nH]1 (configuration not stated)
inactive: [28] 109 % of control | dose: 100.0 mg/kg/injection, schedule: Q01DX005 (ip), vehicle: saline 110 % of control | [29] 112 % of control

CC(C)CC(=O)CC1(C)CCC(c2ccoc2)O1 (configuration not stated)
inactive: [25] 102 % of control | [26] 101 % of control | [27] 107 % of control

CCSC(=O)c1ccc(S(=O)(=O)CC)cc1
inactive: [16] 102 % of control | [17] 98 % of control | [18] 106 % of control | dose: 400.0 mg/kg/injection, schedule: Q01DX009 (ip), vehicle: Klucel (hydroxypropylcellulose) (HPC) 107 % of control

Cn1c(-c2ccc3c(c2)OCO3)nn(CN2CCOCC2)c1=S
inactive: [4] 97 % of control | [5] 100 % of control | [6] 107 % of control

COC(=O)C(OC)C(O)C(OC)OC (configuration not stated)
inactive: [10] 100 % of control | [11] 101 % of control | [12] 104 % of control

O=c1[nH]nc(Sc2ccccc2)c2nncn12
inactive: [10] 100 % of control | [11] 92 % of control

COC1=CC(=O)C2CC=CC(CC(=O)O)C2(C)C1=O (configuration not stated)
inactive: [4] 108 % of control | [5] 103 % of control

O=c1[nH]oc(=O)[nH]1
inactive: dose: 6.25 mg/kg/injection, schedule: Q01DX005 (ip), vehicle: saline 95 % of control | dose: 12.5 mg/kg/injection, schedule: Q01DX005 (ip), vehicle: saline 97 % of control | dose: 25.0 mg/kg/injection, schedule: Q01DX005 (ip), vehicle: saline 94 % of control | [28] 100 % of control and 91 % of control | [29] 100 % of control

Cc1ccc2nc(NC(=O)OCc3ccccc3)sc2c1
inactive: [13] 97 % of control | [14] 101 % of control

C=C1C(=O)OC2/C=C(CO)/C=C\C3OC3(C)CC(OC(=O)/C(C)=C/COC(C)=O)C12 (configuration not stated)
inactive: dose: 6.25 mg/kg/injection, schedule: Q01DX005 (ip), vehicle: Klucel (hydroxypropylcellulose) (HPC) 94 % of control | dose: 12.5 mg/kg/injection, schedule: Q01DX005 (ip), vehicle: Klucel (hydroxypropylcellulose) (HPC) 103 % of control | dose: 25.0 mg/kg/injection, schedule: Q01DX005 (ip), vehicle: Klucel (hydroxypropylcellulose) (HPC) 109 % of control and 94 % of control | [4] 98 % of control

Reference: PubChem BioAssay AID330 (DTP/NCI, 2004)
